Legend:
Type in all cases: cell-based
A172 cells = assay: Invasive structures in 3D culture
A172 glioblastoma cells [1] = assay: Growth factor (HGF, EGF) induced trafficking of lysosomes to cell periphery; details: 10 μM overnight, HGF (33 ng/ml) or EGF (100 ng/ml)
Procedure: In this embodiment deptropine and pizotifen also block lysosome peripheral movement in glioma cells treated with the growth factors HGF and EGF. Both of these growth factors interact with their receptors, c-Met and EGFR, respectively to induce glioma invasion. In this example, A172 glioblastoma cells were treated overnight with 10 μM deptropine or pizotifen in the presence or absence of HGF (33 ng/ml) or EGF (100 ng/ml). At the end of the incubation time, cells were fixed and stained for LAMP-1, filamentous actin, and nuclei. Representative merged IF images depicting the effect of DMSO, 10 μM deptropine or pizotifen and/or HGF, EGF on the distribution of lysosomes (red in color images) in A172 glioblastoma cells. Also shown here are actin (green in color images) and nuclei (blue in color images).

A172 glioblastoma cells [2] = assay: Acidic media pH induced lysosome distribution, LAMP-1 IF imaging; details: for acidic media induced trafficking of lysosomes to the cell periphery: 5 or 10 μM overnight, then low pHe media with drug 2 h; for lysosomal outward movement, early time: 5 or 10 μM, 2 h then low pHe media with drugs 2 h (4 hours); for inward movement of lysosomes, single drug: one micromolar alone
Procedure: A172 glioblastoma cells were treated overnight with 5 or 10 μM deptropine or pizotifen or with the deptropine or pizotifen in combination at 5 μM concentration. The next day, media was change to low pHe media containing deptropine or pizotifen and the cells were incubated for an additional 2 h. EIPA is a known inhibitor of lysosomal outward movement and represents the positive control. At the end of the incubation time, cells were fixed and stained for LAMP-1, filamentous actin and nuclei. Representative merged IF images depicting the effect of pHe 7.4, pHe 6.4, DMSO or deptropine and pizotifen on the distribution of lysosomes in A172 glioblastoma cells. On color versions of the Figure, red puncta are lysosomes, blue is nuclei and green is actin. As could be seen, lysosomes appear more peripherally distributed in A172 glioma cells than in cells treated with concentrations of 5 to 10 micromolar deptropine or pizotifen.
Cells were treated as described above with FIG. 2 but included a concentration of 0.1 micromolar and 1 micromolar deptropine and pizotifen.
Turning to FIG. 7, an additional aspect of this technology is how quickly deptropine and pizotifen act to move lysosomes towards the nucleus. […] A172 glioblastoma cells were treated with the 5 or 10 μM deptropine or pizofifen for 2 h and then with low pHe media containing the drugs for an additional 2 hours. At the end of incubation time, cells were fixed and stained for LAMP-1, filamentous actin, and nuclei. Representative merged IF images depicting the effect of DMSO, 5 and 10 μM deptropine or pizotifen upon 4 hours on the distribution of lysosomes, colored red in color images, in A172 glioblastoma cells. Also shown in color images are actin, colored green, and nuclei, colored blue.

Erk signaling pathway = assay: Lysosome inward movement in the presence of the MAPK inhibitor U0126, and Erk western blot; details: A172 cells, results not shown
Procedure: Turning to FIG. 8, deptropine and pizotifen are shown to act through the Erk signaling pathway. In this experiment, A172 cells were treated with deptropine and pizotifen at 5 μM concentrations for 4 hours in the presence of the MAPK inhibitor U0126. I.F. microscopy was then performed. This helped allow the determination of the mechanism of action of deptropine and pizotifen.

Row | Structure (SMILES) | number of invasive structures formed in 3D culture (A172 cells) | trafficking of lysosomes to cell periphery induced by growth factors (A172 glioblastoma cells [1]) | acidic media induced trafficking of lysosomes to the cell periphery (A172 glioblastoma cells [2]) | lysosomal outward movement, early time (A172 glioblastoma cells [2]) | inward movement of lysosomes, single drug (A172 glioblastoma cells [2]) | Erk signaling pathway, western blot (Erk signaling pathway)
1 | CN1[C@@H]2CC[C@H]1C[C@@H](OC1c3ccccc3CCc3ccccc31)C2 [deptropine, 3a-[(10, 11-dihydro-5H-dibenzo[a,d]cyclohepten-5-yl)oxy]1aH,5aH-tropane] | effectively reduce the number of invasive structures | block trafficking of lysosomes to cell periphery | blocks acidic media induced trafficking of lysosomes to the cell periphery | prevent lysosomal outward movement | only a marginal effect | activate the Erk signaling pathway
2 | CN1CCC(=C2c3ccccc3CCc3sccc32)CC1 [pizotifen, 4-(1-methyl-4-piperidylidine)-9,10-dihydro-4H-benzo-[4,5]cyclohepta[1,2]-thiophene] | effectively reduce the number of invasive structures | block trafficking of lysosomes to cell periphery | blocks acidic media induced trafficking of lysosomes to the cell periphery | prevent lysosomal outward movement | only a marginal effect | activate the Erk signaling pathway

Reference: patent US20200330447A1, “CANCER TREATMENT VIA REPOSITIONED TRICYCLIC ANTI-DEPRESSANT-LIKE DRUGS AS ANTI-CANCER AGENTS AND NEW COMBINATIONS OF SUCH DRUGS” (Board of Supervisors of Louisiana State University and …, priority 2015, published 2020)
